This note sets out measurements from US7022856B2, “Carboline derivatives” (LIlly Icos LLC., priority 2001, dated 2006).

pIC50: −log10 of the molar value.

In one series the target is T1, PDE5 (bovine aorta) (Bos taurus, UniProt Q28156).
T1 construct: from tissue; host or cells: bovine aorta
As to the kind of experiment: cGMP-PDE inhibition, one-step assay, enzyme from bovine aorta. Format: biochemical. The settings on record: versus bovine aorta (footnote 1). Here is the method:
(§1) cGMP-PDE activity of compounds of the present invention was measured using a one-step assay adapted from Wells et al., Biochim. Biophys. Acta, 384, 430 (1975). The reaction medium contained 50 mM Tris-HCl, pH 7.5, 5 mM magnesium acetate. 250 μg/ml 5′-Nucleotidase, 1 mM EGTA, and 0.15 μM 8-[H^3]-cGMP. Unless otherwise indicated, the enzyme used was a human recombinant PDE5 (ICOS Corp., Bothell, Wash.).
(§2) Compounds of the invention were dissolved in DMSO finally present at 2% in the assay.
Consider `O=C(c1ccccc1)N1CCc2c([nH]c3ccccc23)C1c1ccc2c(c1)OCO2` (stereo not drawn) [Example 3], for which the pIC50 was 6.36. `CC(=O)Nc1ccc(C(=O)N2CCc3c([nH]c4ccccc34)C2c2ccc3c(c2)OCO3)cc1` (stereo not drawn) [Example 4, N-{4[1-(1-Benzo[1,3]dioxol-5-yl-1,3,4,9-tetrahydro-β-carboline-2-yl)-methanoyl]phenyl}acetamide] gave a pIC50 of 7.30. On the same count and under the same terms, then `O=C(c1ccc2nc[nH]c2c1)N1CCc2c([nH]c3ccccc23)C1c1ccc2c(c1)OCO2` (stereo not drawn) [Example 12, 1-(1-Benzo[1,3]dioxol-5-yl-1,3,4,9-tetrahydro-β-carbolin-2-yl)-1-(3H-benzoimidazol-5-yl)methanone], with 6.74; and `O=C(c1cc2ccccc2s1)N1CCc2c([nH]c3ccccc23)C1c1ccc(C(F)(F)F)cc1` (stereo not drawn) [Example 14], with 6.70; and `O=C(c1ccc(-c2ccccn2)s1)N1CCc2c([nH]c3ccccc23)C1c1ccccc1` (stereo not drawn) [Example 15], with 9.00. On the same count and under the same terms, then `CC(=O)Nc1ccc(C2c3[nH]c4ccccc4c3CCN2C(=O)c2cc3ccccc3s2)cc1` (stereo not drawn) [Example 16], with 7.15; and `O=C(c1ccc(-c2ccccn2)s1)N1CCc2c([nH]c3ccccc23)C1c1ccc2c(c1)OCO2` (stereo not drawn) [Example 17], with 6.60.

Test system in the next series: not given
Test: not given
Conditions: not given
On to `O=C(c1ccc2ccccc2c1)N1CCc2c([nH]c3ccccc23)C1c1ccc2c(c1)OCO2` (stereo not drawn) [Example 1, 1-(2H-Benzo[d]1,3-dioxolan-5-yl)(1,2,3,4-tetrahydro-β-carbolin-2-yl)-2-naphthyl ketone], for which the melting point is 248 to 249 °C.

A further series concerns the target T2, human recombinant PDE5 (Homo sapiens, UniProt O76074).
T2 construct: host or cells: Saccharomyces cerevisiae strain BJ2-54 (ATCC 74465)
As to the kind of experiment: cGMP-PDE inhibition, one-step assay with human recombinant PDE5. Conditions: 0.15 μM 8-[H3]-cGMP, 30 min. Format: biochemical. On the procedure:
The compounds of structural formula (I) were tested for an ability to inhibit PDE5. The ability of a compound to inhibit PDE5 activity is related to the IC50 value for the compound, i.e., the concentration of inhibitor required for 50% inhibition of enzyme activity. The IC50 value for compounds pounds of structural formula (I) were determined using recombinant human PDE5.
Recombinant production of human PDE1B, PDE2, PDE4A, PDE4B, PDE4C, PDE4D, PDE5, and PDE7 was carried out similarly to that described in Example 7 of U.S. Pat. No. 5,702,936, incorporated herein by reference, except that the yeast transformation vector employed, which is derived from the basic ADH2 plasmid described in Price et al., Methods in Enzymology, 185, pp. 308–318 (1990), incorporated yeast ADH2 promoter and terminator sequences and the Saccharomyces cerevisiae host was the protease-deficient strain BJ2-54 deposited on Aug. 31, 1998 with the American Type Culture Collection, Manassas, Va., under accession number ATCC 74465. Transformed host cells were grown in 2×SC-leu medium, pH 6.2, with trace metals, and vitamins. After 24 hours, YEP medium-containing glycerol was added to a final concentration of 2×YET/3% glycerol. Approxiately 24 hr later, cells were harvested, washed, and stored at −70° C. […]
Cell pellets (29 g) were thawed on ice with an equal volume of Lysis Buffer (25 mM Tris HCl, pH 8, 5 mM MgCl2, 0.25 mM DTT, 1 mM benzamidine, and 10 μM ZnSO4). Cells were lysed in a Microfluidizer® (Microfluidics Corp.) using nitrogen at 20,000 psi. The lysate was centrifuged and filtered through 0.45 μm disposable filters. The filtrate was applied to a 150 mL column of Q SEPHAROSE® Fast-Flow (Pharmacia). The column was washed with 1.5 volumes of Buffer A (20 mM Bis-Tris Propane, pH 6.8, 1 mM MgCl2, 0.25 mM DTT, 10 μM ZnSO4) and eluted with a step gradient of 125 mM NaCl in Buffer A followed by a linear gradient of 125–1000 mM NaCl in Buffer A. Active fractions from the linear gradient were applied to a 180 mL hydroxyapatite column in Buffer B (20 mM Bis-Tris Propane (pH 6.8), 1 mM MgCl2, 0.25 mM DTT, 10 μM ZnSO4, and 250 mM KCl). After loading, the column was washed with 2 volumes of Buffer B and eluted with a linear gradient of 0–125 mM potassium phosphate in Buffer B. Active fractions were pooled, precipitated with 60% ammonium sulfate, and resuspended in Buffer C (20 mM Bis-Tris Propane, pH 6.8, 125 mM NaCl, 0.5 mM DTT, and 10 μM ZnSO4). The pool was applied to a 140 mL column of SEPHACRYL® S-300 HR and eluted with Buffer C. Active fractions were diluted to 50% glycerol and stored at −20° C.
as §1, §2
Take `O=C(c1ccc2ccccc2c1)N1CCc2c([nH]c3ccccc23)C1c1ccc2c(c1)OCO2` (stereo not drawn) [Example 1, 1-(2H-Benzo[d]1,3-dioxolan-5-yl)(1,2,3,4-tetrahydro-β-carbolin-2-yl)-2-naphthyl ketone]: the pIC50 is 6.25. As to `COc1ccc(-c2ccnc(N3CCc4c([nH]c5ccccc45)C3c3ccc4c(c3)OCO4)n2)cc1` (stereo not drawn) [Example 49], the pIC50 is 8.00.

For `c1cnc(N2CCc3c([nH]c4ccccc34)C2c2ccc3c(c2)OCO3)nc1` (stereo not drawn) [Example 50], the pIC50 is 6.11. For the molecule `c1ccc(-c2ccnc(N3CCc4c([nH]c5ccccc45)C3c3ccc4c(c3)OCO4)n2)cc1` (stereo not drawn) [Example 51], the pIC50 is 7.52. The same measure, in the same setting: then `c1ccc(-c2ccnc(N3CCc4c([nH]c5ccccc45)C3c3ccccc3)n2)cc1` (stereo not drawn) [Example 52], with 6.54; and `Clc1nc(N2CCc3c([nH]c4ccccc34)C2c2ccc3c(c2)OCO3)c2nc[nH]c2n1` (stereo not drawn) [Example 53], with 7.15.

Turning to `CN1CCN(c2nccc(N3CCc4c([nH]c5ccccc45)C3c3ccc4c(c3)OCO4)n2)CC1` (stereo not drawn) [Example 54], the pIC50 is 6.25. Same read-out and setting: then `c1ccc(-c2nccc(N3CCc4c([nH]c5ccccc45)C3c3ccc4c(c3)OCO4)n2)cc1` (stereo not drawn) [Example 55], with 7.70; and `c1csc(-c2nccc(N3CCc4c([nH]c5ccccc45)C3c3ccc4c(c3)OCO4)n2)c1` (stereo not drawn) [Example 56], with 7.40. As to `c1ccc2c3c([nH]c2c1)C(c1ccc2c(c1)CCO2)N(c1ccnc(-n2ccnc2)n1)CC3` (stereo not drawn) [Example 57], the pIC50 was 7.22. Same read-out and setting: then `c1ccc(-c2ccnc(N3CCc4c([nH]c5ccccc45)C3c3ccc4c(c3)CCO4)n2)cc1` (stereo not drawn) [Example 58], with 7.52. For the molecule `c1cncc(-c2ccnc(N3CCc4c([nH]c5ccccc45)C3c3ccc4c(c3)CCO4)n2)c1` (stereo not drawn) [Example 59], the pIC50 was 7.40.

On to `c1ccc2c3c([nH]c2c1)C(c1ccc2c(c1)CCO2)N(c1nccc(-n2ccnc2)n1)CC3` (stereo not drawn) [Example 60], for which the pIC50 was 7.15. On the same count and under the same terms, then `c1cncc(-c2nccc(N3CCc4c([nH]c5ccccc45)C3c3ccc4c(c3)CCO4)n2)c1` (stereo not drawn) [Example 61], with 7.40; and `c1csc(-c2nccc(N3CCc4c([nH]c5ccccc45)C3c3ccc4c(c3)CCO4)n2)c1` (stereo not drawn) [Example 62], with 7.30. The same measure, in the same setting: the value for `Cc1nccn1-c1nccc(N2CCc3c([nH]c4ccccc34)C2c2ccc3c(c2)CCO3)n1` (stereo not drawn) [Example 63] was 7.40. Consider `c1ccc2c3c([nH]c2c1)C(c1ccc2c(c1)CCO2)N(c1ccnc(N2CCCCC2)n1)CC3` (stereo not drawn) [Example 64], for which the pIC50 was 6.12. For `c1ccc2c3c([nH]c2c1)C(c1ccc2c(c1)CCO2)N(c1cc(-n2ccnc2)ncn1)CC3` (stereo not drawn) [Example 65], the pIC50 was 7.70.

Consider `c1coc(-c2ccnc(N3CCc4c([nH]c5ccccc45)C3c3ccc4c(c3)CCO4)n2)c1` (stereo not drawn) [Example 66], for which the pIC50 was 6.47. As to `c1coc(-c2nccc(N3CCc4c([nH]c5ccccc45)C3c3ccc4c(c3)CCO4)n2)c1` (stereo not drawn) [Example 67], the pIC50 is 7.15.

On to `Cc1nccn1-c1cc(N2CCc3c([nH]c4ccccc34)C2c2ccc3c(c2)CCO3)ncn1` (stereo not drawn) [Example 68], for which the pIC50 is 7.70. Regarding `c1cncc(-c2nccc(N3CCc4c([nH]c5ccccc45)C3c3ccc4c(c3)CCO4)n2)c1` (stereo not drawn) [Example 69], the pIC50 was 8.05. As for `CN(C)CCOc1ccc(-c2ccnc(N3CCc4c([nH]c5ccccc45)C3c3ccc4c(c3)CCO4)n2)cc1` (stereo not drawn) [Example 70], the pIC50 was 7.70. On the same count and under the same terms, then `Cc1ncn(-c2cc(N3CCc4c([nH]c5ccccc45)C3c3ccc4c(c3)CCO4)ncn2)c1C` (stereo not drawn) [Example 71], with 7.70; and `Oc1ccc(-c2ccnc(N3CCc4c([nH]c5ccccc45)C3c3ccc4c(c3)CCO4)n2)cc1` (stereo not drawn) [Example 72], with 8.00. On the same count and under the same terms, the value for `Cc1ncn(-c2nccc(N3CCc4c([nH]c5ccccc45)C3c3ccc4c(c3)CCO4)n2)c1C` (stereo not drawn) [Example 73] was 7.52; that for `Cc1cn(-c2ccnc(N3CCc4c([nH]c5ccccc45)C3c3ccc4c(c3)CCO4)n2)cn1` (stereo not drawn) [Example 74] was 7.40; that for `c1ccc(-c2cc(N3CCc4c([nH]c5ccccc45)C3c3ccc4c(c3)CCO4)ncn2)cc1` (stereo not drawn) [Example 75] was 8.15. In the case of `Cc1cn(-c2cc(N3CCc4c([nH]c5ccccc45)C3c3ccc4c(c3)CCO4)ncn2)cn1` (stereo not drawn) [Example 76], the pIC50 is 8.00. On the same count and under the same terms, then `c1cncc(-c2cc(N3CCc4c([nH]c5ccccc45)C3c3ccc4c(c3)CCO4)ncn2)c1` (stereo not drawn) [Example 77], with 8.40; and `Cc1nccn1-c1ccnc(N2CCc3c([nH]c4ccccc34)C2c2ccc3c(c2)CCO3)n1` (stereo not drawn) [Example 78], with 7.22; and `COc1ccc(-c2cc(N3CCc4c([nH]c5ccccc45)C3c3ccc4c(c3)CCO4)ncn2)cc1` (stereo not drawn) [Example 79], with 8.40.

As to `Oc1ccc(-c2cc(N3CCc4c([nH]c5ccccc45)C3c3ccc4c(c3)CCO4)ncn2)cc1` (stereo not drawn) [Example 80], the negative-log IC50 (pIC50) is 7.30.

With `CC(=O)Oc1ccc(-c2cc(N3CCc4c([nH]c5ccccc45)C3c3ccc4c(c3)CCO4)ncn2)cc1` (stereo not drawn) [Example 81], the pIC50 is 8.52. The same measure, in the same setting: the value for `CN(C)CCOc1ccc(-c2cc(N3CCc4c([nH]c5ccccc45)C3c3ccc4c(c3)CCO4)ncn2)cc1` (stereo not drawn) [Example 82] was 8.30; that for `Cc1ccc(C2c3[nH]c4ccccc4c3CCN2C(=O)c2cc3ccccc3s2)cc1` (stereo not drawn) [Example 83] was 7.09; that for `O=C(c1cc2ccccc2s1)N1CCc2c([nH]c3ccccc23)C1c1ccc2c(c1)OCO2` (stereo not drawn) [Example 84] was 6.51. Consider `O=C(c1cc2ccccc2s1)N1CCc2c([nH]c3ccccc23)C1c1cccc(Cl)c1` (stereo not drawn) [Example 85], for which the pIC50 was 6.08. On the same count and under the same terms, then `O=C(c1cc2ccccc2s1)N1CCc2c([nH]c3ccccc23)C1c1ccccc1` (stereo not drawn) [Example 86], with 6.05; and `c1ccc2c3c([nH]c2c1)C(c1ccc2c(c1)OCO2)N(c1nccc(N2CCOCC2)n1)CC3` (stereo not drawn) [Example 87], with 6.00.

A word on the pIC50: it is the negative decadic logarithm of the IC50, by convention in mol/L. As usually defined, the melting point is the temperature of the solid-liquid transition.
